Laboratory results taken from US9145435B2, “Urea compounds” (Eli Lilly and Company, priority 2013, dated 2015).

Legend:
[1] = biological target: T1, human SGLT1 (Homo sapiens, UniProt P13866); experiment: Sodium-dependent 14C-AMG uptake assay in CHO-K1 cells expressing human SGLT1; assay type: cell-based; settings: n=9
T1 sequence (P13866 1-664): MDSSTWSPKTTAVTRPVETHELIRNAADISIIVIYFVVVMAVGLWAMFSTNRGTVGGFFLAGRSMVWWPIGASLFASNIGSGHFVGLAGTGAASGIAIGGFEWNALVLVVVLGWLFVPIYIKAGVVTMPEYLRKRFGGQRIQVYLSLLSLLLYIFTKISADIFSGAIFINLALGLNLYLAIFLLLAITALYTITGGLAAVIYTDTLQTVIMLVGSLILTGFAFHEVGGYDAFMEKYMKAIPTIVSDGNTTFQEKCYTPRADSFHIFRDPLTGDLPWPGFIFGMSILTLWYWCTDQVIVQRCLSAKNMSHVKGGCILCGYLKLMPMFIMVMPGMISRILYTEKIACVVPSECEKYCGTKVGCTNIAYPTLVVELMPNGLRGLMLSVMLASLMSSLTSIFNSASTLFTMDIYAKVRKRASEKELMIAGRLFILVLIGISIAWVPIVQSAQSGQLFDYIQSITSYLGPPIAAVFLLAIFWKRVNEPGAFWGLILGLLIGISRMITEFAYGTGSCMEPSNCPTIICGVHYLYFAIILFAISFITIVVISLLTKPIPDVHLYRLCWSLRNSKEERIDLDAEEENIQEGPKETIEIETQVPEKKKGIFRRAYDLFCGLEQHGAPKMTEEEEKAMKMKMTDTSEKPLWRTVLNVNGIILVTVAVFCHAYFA
Text: (§1) The cDNA encoding human SGLT1 (slc5a1, NM_000343) and mouse SGLT1 (slc5a1, NM_019810.4) are purchased from Openbiosystems. The cDNA is cloned into pcDNA3.1+ for mammalian expression and is stably transfected into Chinese hamster ovary (CHO)-K1 cells using standard mammalian transfection procedures. An SGLT-expressing sub-clone of each over-expressing cell line is selected based on resistance to neomycin (Geneticin, Invitrogen) and activity in the ^14C-a-methyl-D-glucopyranoside (^14C-AMG) uptake assay (see below). Stable SGLT-expressing cells are maintained using standard cell culture techniques.
(§2) The SGLT activity is measured as sodium-dependent ^14C-AMG uptake in the above cell lines described as follows. One hundred […] of culture medium containing 30,000 cells are seeded to each well of a 96-well BioCoat poly-D-lysine plate (Becton Dickson) and cultured at 37° C. overnight. The culture medium is aspirated and cells are washed twice with […] of Reaction Buffer (140 mM NaCl, 2 mM KCl, 1 mM CaCl2, MgCl2, and 14 mM N-2-hydroethylpiperrazine-N′-2-ethanesulfonic acid (Hepes), pH 7.5). The excess buffer is tapped out onto paper towels. Thirty-five […] of Reaction Buffer are added to each well. […] After mixing, the scintillation signal in the plate is counted in a MicroBeta (PerkinElmer). […]

[2] = system: C57B1/6 mice; experiment: Glucose lowering effects in oral glucose tolerance test (OGTT); assay type: in vivo, mouse; settings: for Glucose 20 Minute / Glucose 40 Minute / Glucose 60 Minute / Baseline Adjusted AUC (glucose) / Glucose Cmax / Glucose Tmax / Glucose 0 Minute: OGTT, 10 mg/kg oral, Mean ± SEM; for Glucose 20 Minute: 20 min after dextrose; for Glucose 40 Minute: 40 min after dextrose; for Glucose 60 Minute: 60 min after dextrose; for Glucose 0 Minute: baseline before 3 g/kg dextrose
Experimental: The test compound is formulated by adding a vehicle of 1% hydroxyethylcellulose, 0.25% Tween® 80 w/antifoam 0.05% to preweighed test compound to make a 1 mg/ml solution. The mixture is probe sonicated for approximately 1 minute. A stir bar is added, and the resulting suspension is stirred continuously throughout dosing.
One of two sets of single housed C57B1/6 mice are weighed and body weights used to determine study groups (n=5), within a working range of 26-30 g. After grouping, the mice are orally gavaged with 10 ml/kg test compound preparation or vehicle, thirty seconds apart. […] Both sets of mice are then fasted overnight by removing access to food, late afternoon before test day. The following morning, the remaining mice, are weighed and bled (via tail snip) for glucose. Study groups (n=5) are determined using fasted glucose values, within a working range of 80-100 mg/dl. After grouping, the mice are orally gavaged using the same protocol as the previous day.
At eight and eighteen hours after each respective compound treatment is started, a baseline blood sample is taken for measuring glucose (from the first animal). The animal is then immediately given an oral dose of 50% dextrose (Hospira®) at 3 g/kg. Blood samples are taken for glucose, exactly thirty seconds apart, by tail vein so that blood is collected in each animal at 20, 40 and 60 minutes after the dextrose dose.

[3] = biological target: T2, mouse SGLT1 (Mus musculus, UniProt Q8C3K6); experiment: Sodium-dependent 14C-AMG uptake assay in CHO-K1 cells expressing mouse SGLT1; assay type: cell-based; settings: n=6
T2 sequence (Q8C3K6 1-665): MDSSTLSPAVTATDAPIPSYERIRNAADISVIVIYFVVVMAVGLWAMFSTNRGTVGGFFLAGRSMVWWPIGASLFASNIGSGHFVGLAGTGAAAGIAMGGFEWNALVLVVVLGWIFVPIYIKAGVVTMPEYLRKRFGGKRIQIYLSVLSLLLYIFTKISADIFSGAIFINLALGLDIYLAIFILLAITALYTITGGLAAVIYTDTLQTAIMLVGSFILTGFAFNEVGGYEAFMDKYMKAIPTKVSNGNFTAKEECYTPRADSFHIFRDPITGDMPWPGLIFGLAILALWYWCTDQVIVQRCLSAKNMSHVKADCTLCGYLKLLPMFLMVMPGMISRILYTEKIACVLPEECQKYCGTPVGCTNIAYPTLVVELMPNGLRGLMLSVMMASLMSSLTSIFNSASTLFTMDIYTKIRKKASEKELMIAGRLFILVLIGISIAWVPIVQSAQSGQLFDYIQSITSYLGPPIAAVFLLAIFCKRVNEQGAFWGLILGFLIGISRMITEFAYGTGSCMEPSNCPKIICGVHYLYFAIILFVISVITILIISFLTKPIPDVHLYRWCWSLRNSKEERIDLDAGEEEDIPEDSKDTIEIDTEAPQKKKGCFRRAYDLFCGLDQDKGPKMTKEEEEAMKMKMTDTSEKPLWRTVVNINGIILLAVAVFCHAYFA
Text: as §1, §2

## Cc1cccc2c1c(Cc1ccc(/C=C/CCN3CCCC4(CCN(C(=O)CNC(=O)NCC(C)C)CC4)C3)cc1)cn2[C@@H]1O[C@H](CO)[C@@H](O)[C@H](O)[C@H]1O [Example 1, 1-isobutyl-3-[2-[4-[(E)-4-[4-[[4-methyl-1-[(2R,3R,4S,5S,6R)-3,4,5-trihydroxy-6-(hydroxymethyl)tetrahydropyran-2-yl]indol-3-yl]methyl]phenyl]but-3-enyl]-4,9-diazaspiro[5.5]undecan-9-yl]-2-oxo-ethyl]urea]
[1]
  IC50: 17.4 ± 14.6 nM
[2]; 8 hrs post dose
  Glucose 20 Minute: 119.1 ± 11.4 mg/dL
  Glucose 40 Minute: 127.7 ± 8.32 mg/dL
  Glucose 60 Minute: 132.6 ± 8.85 mg/dL
  Baseline Adjusted AUC (glucose): 2752 ± 507 mg/dL
  Glucose Cmax: 134.7 ± 8.31 mg/dL
  Glucose Tmax: 48 ± 8 min
  Glucose 0 Minute: 70.2 ± 5.47 mg/dL
[2]; 18 hrs post dose
  Glucose 20 Minute: 116.1 ± 2.71 mg/dL
  Glucose 40 Minute: 130.7 ± 4.47 mg/dL
  Glucose 60 Minute: 124.1 ± 1.42 mg/dL
  Baseline Adjusted AUC (glucose): 1792 ± 254 mg/dL
  Glucose Cmax: 132.7 ± 3.27 mg/dL
  Glucose Tmax: 48 ± 4.9 min
  Glucose 0 Minute: 87.7 ± 3.36 mg/dL
[2]; normal glycemic C57B1/6 mouse, eight or eighteen hours after administration
  glucose excursion after oral bolus of 50% dextrose: decrease
[3]
  IC50: 13.6 ± 7.3 nM
